Experimental data from patent US20030108964A1, “Caspase-inhibitory-factor(cif)and uses thereof” (priority 2002, published 2003).

Columns and labels:
[1] = test system: recombinant active caspase-6 (R-Csp-6); test: CIF activity: protein extracts of treated neurons added to recombinant active caspase-6 in vitro (Ac-VEID-AFC); assay type: cell-based, human
Procedure: (§1) Primary cultures of neurons were established from 12-14 week old foetal brains, according to ethical regulations of the Medical Research Council of Canada and approved by McGill University. Institutional Review Board. Briefly, cortical and subcortical brain tissue is minced, dissociated in 0.25% trypsin for 15 minutes at 37° C. Trypsin is inactivated with 10% serum and 0.1 mg/ml deoxyribonuclease I added before triturating to completely dissociate the cells. The mixture is successively passed through 130 μm and 70 μm filters, and cells plated at 3×10^6/ml on poly-L-lysine coated tissue culture dishes or ACLAR™ (33C; 5 mm; Allied Chemical Corp.) coverslips in phenol-free minimal essential media in Earle's balanced salt solution containing 0.225% sodium bicarbonate, 1 mM sodium pyruvate, 2 mM L-glutamine, 0.1% dextrose, 1×antibiotic Pen-Strep (all products from Gibco-BRL) and 5% decomplemented fetal bovine serum (Hyclone).
(§2) All were obtained from Sigma and dissolved as stock solutions in 100% ethanol. Dilutions of 1/1000 was made in culture media immediately before use. The media was changed with fresh solution every 48 hours. Controls received an equivalent amount of ethanol.
(§3) Cycloheximide (Sigma) was made at 1 mg/ml in distilled-water and diluted at 5 and 20 μg/ml in culture media before treatment. To assess the efficiency of cycloheximide as an inhibitor of translation at these concentrations, neurons were labeled with 100 μCi/ml of ^35S-methionine (Easy Tag NEN-DUPONT) for 6 hours in the absence or presence of cycloheximide. Proteins were extracted in NP-40 lysis buffer, immunoprecipitated and separated by 10% polyacrylamide gel electrophoresis. To test the effect of cycloheximide on the neuroprotective effect of 17-β-estradiol, neurons were microinjected with R-Csp-6 and incubated with 10 nM 17-β-estradiol in the absence or presence of cycloheximide for 48 hours. To test the effect of cycloheximide on 17-β-estradiol induction of CIF, neurons were incubated with 10 nM 17-β-estradiol in the absence or presence of cycloheximide for 6 hours.
After treatment, neuron proteins were extracted in caspase lysis buffer (50 mM Hepes pH 7.4, 0.1% CHAPS, 1 mM DTT, 0.1 mM EDTA) for 10 minutes on ice followed by microcentrifugation to remove insoluble material. Protein concentration was determined by bicinchoninic acid (BCA) assay (Pierce). Proteins (10 μg/100 μl assay) were added to 10 ng recombinant active caspase (Pharmingen or BioMol) in caspase assay buffer (20 mM Pipes, 30 mM NaCl, 10 mM DTT, 1 mM EDTA, 0.1% CHAPS, 10% sucrose pH 7.2) and 68.5 μM Ac-VEID-AFC for caspase-6, Ac-DEVD-AFC for caspase-3 and caspase-7, and Ac-IETD-AMC for caspase-8 (BioMol). The caspase-6 activity was measured at 37° C. every 2 minutes for 1 hour to determine the linear range of activity. Based on an AFC or AMC standard curve, the amount of released AFC or AMC was measured and the specific activity of the caspase determined as nmoles released AFC or AMC/pg protein/minute.

[2] = test system: R-Csp-6-mediated apoptosis in primary cultures of human neurons; test: TUNEL cell death of primary human neurons microinjected with recombinant active caspase-6; assay type: cell-based; settings: for effect on 17-β-estradiol neuroprotective effect against caspase-6: 10 nM added to 17-β-estradiol
Procedure: as §1
The cells attach rapidly and establish intricate neuritic networks within 3 days. Fluorodeoxyuridine (FdU) is added at 1 mM to prevent proliferation of dividing cells. Typically, the culture is composed of 90-95% neurons and 5-10% astrocytes that survive in culture for 4-6 weeks. Experiments on neurons and astrocytes were conducted at 10 days of culture.
Glass micropipettes of 1.0 mm OD and 0.5 mm ID thin-walled glass capillaries with microfilaments (Borosilicate with filament MTW100F-4, World Precise Instrument Co.) were pulled with a Flaming/Brown micropipette puller (P-87) with a tip diameter of […]. Recombinant active caspase-6 or caspase-3 (R-Csp-6 and R-Csp-3 from Pharmingen) were prepared in caspase active buffer containing 20 mM piperazine-N,N′-βis-(2-ethanesulfonic acid) (PIPES), 100 mM NaCl, 10 mM dithiothreitol (DTT), 1 mM EDTA, 0.1% 3-[(3-cholamidopropyl)-dimethylammonio]-2-hydroxy-1-propanesulfonic acid (CHAPS), 10% sucrose, pH 7.2. R-Csp-6 was co-injected with Dextran Texas Red (DTR; at 100 μg/ml) (Cedarlane Laboratories Ltd.) as a fluorescent marker to recognize injected neurons. […] Microinjections were done with the Eppendorf Microinjector 5246 and MIS-5000 Burleigh micromanipulator; injection pressure of 100 hPa, compensation pressure of 50 hPa, and injection time of 0.1 s. The injected volume was 1 nl/shot.
Neurons were fixed in fresh 4% paraformaldehyde/4% sucrose in PBS and permeabilized with 0.1% Triton X-100 in 0.1% sodium citrate. Cell death was detected by TUNEL (TdT-mediated dUTP Nick End Labeling) using the Cell Death Kit I (Roche Molecular Biochemicals) as described by the manufacturer. The percentage of neuronal cell death was determined by the ratio of the number of DTR-TUNEL-double-positive neurons over the total number of DTR-positive neurons.
as §2
as §3, with “hours.” for “hours. To test the effect of cycloheximide on 17-β-estradiol induction of CIF, neurons were incubated with 10 nM 17-β-estradiol in the absence or presence of cycloheximide for 6 hours.”

[3] = test system: Endogenous Csp-6 in human breast cancer cell line, MCF7; test: Endogenous Csp-6 specific activity in treated MCF7 extract; assay type: cell-based; settings: MCF7 extract treated 48 hours; for Endogenous Csp-6 Specific Activity: control 6.34 (0.02); for Csp-6 activity remaining (% of control): control 100%
[4] = test system: R-Csp-6; test: R-Csp-6 specific activity in presence of treated MCF7 extract; assay type: cell-based, human; settings: MCF7 extract treated 48 hours; for R-Csp-6 Specific Activity: control 6.15 (0.7); for R-Csp-6 activity remaining (% of control): control 100%
Procedure: After treatment, neuron proteins were extracted in caspase lysis buffer (50 mM Hepes pH 7.4, 0.1% CHAPS, 1 mM DTT, 0.1 mM EDTA) for 10 minutes on ice followed by microcentrifugation to remove insoluble material. Protein concentration was determined by bicinchoninic acid (BCA) assay (Pierce). […] Based on an AFC or AMC standard curve, the amount of released AFC or AMC was measured and the specific activity of the caspase determined as nmoles released AFC or AMC/pg protein/minute.

[5] = test system: Human astrocytes extracts, CIF activity; test: CIF activity in extracts of treated human astrocytes; assay type: cell-based; settings: 10 nM, 6 hours
[6] = test system: caspase-3-mediated astrocytic cell death; test: TUNEL cell death of human astrocytes microinjected with caspase-3; assay type: cell-based; settings: 10 nM
[7] = test system: endogenous neuronal caspase-6; test: Endogenous caspase-6 activity in treated neurons; assay type: cell-based, human; settings: neurons treated for 48 hours
Procedure: as §1, with “(Hyclone). […] All were obtained from Sigma and dissolved as stock solutions in 100% ethanol. Dilutions of 1/1000 was made in culture media immediately before use. […] Protein concentration was determined by bicinchoninic acid (BCA) assay (Pierce). […] Based on an AFC or AMC standard curve, the amount of released AFC or AMC was measured and the specific activity of the caspase determined as nmoles released AFC or AMC/pg protein/minute.” for “(Hyclone).”

[8] = test system: protein translation in neurons; test: 35S-methionine labelling of neurons to assess inhibition of translation; assay type: cell-based, human; settings: 5-20 μg/ml
Procedure: as §3

[9] = 10 μM with 10 nM 17-β-estradiol

## C[C@]12CC[C@@H]3c4ccc(O)cc4CC[C@H]3[C@@H]1CC[C@H]2O [17-α-estradiol]
[1]; 1, 10, or 100 nM, neurons treated 6 hours
  inhibition of active caspase-6 by extracts from treated neurons: neither 1, 10, or 100 nM 17-α-estradiol significantly inhibit active caspase-6
[2]; 10 nM, 48 hours, 5 pg R-Csp-6/cell
  protection against R-Csp-6: do not protect significantly
[3]; 10 nM
  Endogenous Csp-6 Specific Activity: 7.13 (0.06) pmoles/μg protein/min.
  Csp-6 activity remaining (% of control): 112%
[4]; 10 nM
  R-Csp-6 Specific Activity: 7.19 (0.01) nmoles/μg protein/min.
  R-Csp-6 activity remaining (% of control): 117%

## C[C@]12CC[C@@H]3c4ccc(O)cc4CC[C@H]3[C@@H]1CC[C@@H]2O [17-β-estradiol]
[5]
  CIF activation in astrocytes: CIF is not activated in astrocytes
[1]
  inhibition of recombinant active caspase-6 in vitro by neuronal protein extracts from treated neurons: inhibit recombinant active caspase-6 in vitro
[1]; neurons treated 6 hours, 1-100 nM, 10 μg protein
  inhibition of the activity of R-Csp-6 by extracts from treated neurons: 40-60%
[1]; time response curve
  time of exposure at which CIF activity is maximal: 1 h
  time of exposure to neurons until CIF activity is induced: ≤ 10 min
[2]; 10 nM, 48 hours, 5 pg R-Csp-6/cell, R-Csp-6 alone 50%
  level of apoptosis of microinjected neurons (TUNEL): 20%
[2]; 10 nM, time study, until 8 days
  protection against caspase-6: 50%
[2]; 0.01 or 0.1 nM
  protection against caspase-6 mediated apoptosis: not 0.01 or 0.1 nM
[2]; 1 to 100 nM
  protection against caspase-6 mediated apoptosis: significant protection
[2]; hormone washed away, incubated until 48 hours
  exposure time at which neuronal apoptosis is decreased to maximal levels: 10 min
[6]
  prevention of caspase-3 mediated astrocytic cell death: could not prevent
[7]
  endogenous caspase-6 activity in treated neurons: inhibits endogenous caspase-6 activity
[3]; 1 nM
  Endogenous Csp-6 Specific Activity: 4.02 (0.02) pmoles/μg protein/min.
  Csp-6 activity remaining (% of control): 63%
[3]; 10 nM
  Endogenous Csp-6 Specific Activity: 4.84 (0.03) pmoles/μg protein/min.
  Csp-6 activity remaining (% of control): 76%
[3]; 100 nM
  Endogenous Csp-6 Specific Activity: 5.06 (0.01) pmoles/μg protein/min.
  Csp-6 activity remaining (% of control): 80%
[4]; 1 nM
  R-Csp-6 Specific Activity: 3.82 (0.04) nmoles/μg protein/min.
  R-Csp-6 activity remaining (% of control): 62%
[4]; 10 nM
  R-Csp-6 Specific Activity: 3.25 (0.03) nmoles/μg protein/min.
  R-Csp-6 activity remaining (% of control): 53%
[4]; 100 nM
  R-Csp-6 Specific Activity: 4.30 (0.1) nmoles/μg protein/min.
  R-Csp-6 activity remaining (% of control): 70%

## CC/C(=C(/CC)c1ccc(O)cc1)c1ccc(O)cc1 [DES, diethylstilbesterol]
[1]; 10 nM added to 17-β-estradiol
  effect on 17-β-estradiol induction of CIF: inhibits 17-β-estradiol induction of CIF
[1]; 10 nM, alone
  induction of CIF in neurons: Neither DES nor EE induce CIF
[2]; 48 hours
  effect on 17-β-estradiol neuroprotective effect against caspase-6: inhibits
[2]; 10 nM, alone, 48 hours
  induction of neuroprotection in neurons: nor induce neuroprotection

## C[C@@H]1C[C@@H]([C@H](O)CC2CC(=O)NC(=O)C2)C(=O)[C@@H](C)C1 [cycloheximide]
[1]; 5-20 μg/ml with 10 nM 17-β-estradiol, 6 hours
  effect on 17-β-estradiol induction of CIF: no effect
[2]; 5-20 μg/ml with 10 nM 17-β-estradiol, 48 hours
  effect on 17-β-estradiol-mediated neuroprotection: no effect
[8]
  protein translation in neurons: greatly inhibit protein translation

## CC/C(=C(\c1ccccc1)c1ccc(OCCN(C)C)cc1)c1ccccc1 [tamoxifen]
[1]; 10 nM added to 17-β-estradiol
  effect on 17-β-estradiol induction of CIF: inhibits 17-β-estradiol effect
[1]; [9]
  block of 17-β-estradiol induced CIF activation: efficiently blocked
[2]; 48 hours
  effect on 17-β-estradiol neuroprotective effect against caspase-6: inhibits 17-β-estradiol effect
[2]; [9]
  block of neuroprotective function of 17-β-estradiol against caspase-6: efficiently blocked
